“Also recorded” adds a separate entry of the source. Like-named read-outs stand apart in the source and are kept apart here.
What was measured:
[1] = Spinal cord detection of fluorescent PSD-95 inhibitors; assay type: in vivo, mice; details: mouse, in vivo
Procedure: To investigate if AB143 and AB145 are able to enter spinal cord tissue, they were administered to the mice by intraperitoneal injection (30 mg/kg). The drug-treated mice were decapitated 30 min after injection, and the spinal cord was carefully dissected out, to which 5% trichloroacetic acid (TCA) (300 μL per 0.1 g tissue) was added and the tissue homogenized with an ultrasonic homogenizer (on ice). The homogenated tissue was vortexed and centrifuged for 10 min (20000 g at 4° C.). The supernatant was transferred to a test tube and evaporated, and the residue was reconstituted in water and its fluoresence intensity was determined by using a fluorescence plate reader (excitation/emission:470/525 nm). For quantification of the compounds, a standard curve was prepared by spiking a known amount of AB143 and AB145 into spinal cord tissue from control mice prior to homogenization, followed by work-up and analysis similar to the drug-treated mice.

PDZ1-2 of PSD-95 = biological target: T1, PDZ1-2 of PSD-95 (Homo sapiens, UniProt P78352); assay: Fluorescence polarization (FP) assay, affinity for PDZ1-2 of PSD-95; assay type: binding; details: for Ki: probe AB143 0.5 nM, PDZ1-2 […], IC50 converted to Ki
T1 construct: made in house; host or cells: E. coli BL21-DE3 pLysS
T1 sequence (P78352 with tags, fused parts or gaps): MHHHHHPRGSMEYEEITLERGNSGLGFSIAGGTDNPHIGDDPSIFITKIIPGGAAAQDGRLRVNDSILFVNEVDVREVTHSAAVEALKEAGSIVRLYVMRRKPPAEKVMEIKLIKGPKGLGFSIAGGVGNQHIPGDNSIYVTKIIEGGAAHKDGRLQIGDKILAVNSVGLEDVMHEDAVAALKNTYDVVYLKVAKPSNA
Source text: VI.i. Fluorescence Polarization (FP) Assay: as described below, Example 1 provides a convenient and reliable way to monitor and evaluate the inhibitor properties of a PSD-95 inhibitor of the invention. The FP assay allows a wide range of peptide analogues to be tested and compared with respect to their interaction with PDZ domains, and their specificity with respect to the tandem PDZ1-2 of PSD-95. PDZ1-2 is expressed using standard recombinant DNA technology known to those skilled in the art.
More specifically, the assay is based on a heterologous competition binding assay, where the affinity measured as IC50 of a given (non-fluorescent) peptide analogue for a PDZ domain is measured in the presence of a fixed concentration of a fluorescent labeled dimeric ligand (AB143; FIG. 4). Determined IC50 values are converted to Ki values (Nikolovska-Coleska et al, Anal. Biochem. 2004, 332, p. 261-273). The 5-FAM fluorophore may be attached to the dimeric ligand by coupling with HATU or HBTU.
The cDNA coding for PSD-95 PDZ1-2 tandem (corresponding to residues 61-249 in the human full-length PSD95α without exon 4b) were amplified by inverted PCR and cloned in a modified His-tagged pRSET vector (Invitrogen, Carlsbad, Calif., USA). The encoded PDZ1-2 peptide further comprised the sequence, […] (SEQ ID NO: 14), which was used as a tag for purification (His-tag), and the DNA coding sequences and encoded proteins are designated as follows: HIS-PDZ1-2 DNA [SEQ ID NO: 1] encoding HIS-PDZ1-2 protein [SEQ ID NO: 2]. Competent E. coli bacteria (BL21-DE3, pLysS) were transformed with PDZ1-2 expressing construct and grown overnight on agar plates containing ampicillin (100 μg/mL) and chloramphenicol (35 μg/mL) at 37° C. Colonies were picked and used to inoculate bacterial cultures (LB medium with 50 μg/mL ampicillin). These were shaken while being incubated at 37° C. until A600 of the culture reached 0.45, at which point 1 mM isopropyl β-D-1-thiogalactopyranoside was added. Induced cultures were incubated over night at 30° C. (PDZ1-2). Cells were harvested by spinning at 10,000 g for 10 min at 4° C. and re-suspended in lysis buffer (50 mM Tris/HCL pH 7.5, 1 mM PMSF, 25 μg/ml DNAse, 40 mM Mg2SO4). The cells were destroyed using a cell disruptor apparatus at 26 KPsi. The cell lysate was spun down at 35,000 g for 1 hour and the supernatant filtered with a 0.45 μm and a 0.22 μm filter. Purification of expressed PDZ1-2 peptide was performed with first a nickel (II)-charged column (HisTrap™ HP, GE Healthcare, UK) equilibrated with Tris-buffer (Tris/HCl buffer 50 mM, pH 7.5) followed by gel-filtration. For gel-filtration the PDZ1-2 sample was loaded on a Superdex™ 75 HR 10/30 column (GE Healthcare, UK) equilibrated with Tris buffer (20 mM Tris/HCL, pH 7.5) with a constant flow rate at 0.5 mL/min. The relevant fractions were analyzed on a SDS-PAGE gel stained by a standard silver staining protocol. The final purification was analyzed by electrospray ionization liquid chromatography-mass spectrometry (ESI-LC/MS) to get the exact molecular weight and thereby verify the identity of the PDZ1-2 domain. Molar extinction coefficients were found by amino acids analysis (Alphalyse, Odense, Denmark) and thereafter used for measuring protein concentrations. […]
An in vitro affinity measurement assay was developed based on the fluorescence polarization principle in order to provide affinity constants (Ki values) between synthesized ligands (e.g. dimeric inhibitors) and PDZ1-2 of PSD-95. […]

[2] = system: CFA-induced mechanical allodynia/hyperalgesia; assay: Complete Freund's adjuvant (CFA) inflammatory pain, von Frey test; assay type: in vivo, mice

## CC[C@H](C)[C@H](NC(=O)CCOCCOCCOCCOCCOCCOCCOCCC(=O)N[C@H](C(=O)N[C@@H](CCC(=O)O)C(=O)N[C@@H](CO)C(=O)N[C@@H](CC(=O)O)C(=O)N[C@H](C(=O)O)C(C)C)[C@@H](C)CC)C(=O)N[C@@H](CCC(=O)O)C(=O)N[C@@H](CO)C(=O)N[C@@H](CC(=O)O)C(=O)N[C@H](C(=O)O)C(C)C [AB122, PEG6(IESDV)2]
[1]
  ability to enter spinal cord tissue (concluded from fluorescent surrogates): able to reach their target, PSD-95, in the spinal cord

## CC[C@H](C)[C@H](NC(=O)CCOCCOCCNCCOCCOCCC(=O)N[C@H](C(=O)N[C@@H](CCC(=O)O)C(=O)N[C@H](C(=O)N[C@@H](C)C(=O)N[C@H](C(=O)O)C(C)C)[C@@H](C)O)[C@@H](C)CC)C(=O)N[C@@H](CCC(=O)O)C(=O)N[C@H](C(=O)N[C@@H](C)C(=O)N[C@H](C(=O)O)C(C)C)[C@@H](C)O [AB141, NPEG4(IETAV)2]
[1]
  ability to enter spinal cord tissue (concluded from fluorescent surrogates): able to reach their target, PSD-95, in the spinal cord

## CC[C@H](C)[C@H](NC(=O)CCOCCOCCN(CCOCCOCCC(=O)N[C@H](C(=O)N[C@@H](CCC(=O)O)C(=O)N[C@H](C(=O)N[C@@H](C)C(=O)N[C@H](C(=O)O)C(C)C)[C@@H](C)O)[C@@H](C)CC)C(=O)c1ccc2c(c1)C(=O)OC21c2ccc(O)cc2Oc2cc(O)ccc21)C(=O)N[C@@H](CCC(=O)O)C(=O)N[C@H](C(=O)N[C@@H](C)C(=O)N[C@H](C(=O)O)C(C)C)[C@@H](C)O [AB143, F-NPEG4(IETAV)2]
[1]
  fluorescence in spinal cord tissue compared to saline-treated mice: clear and distinct fluorescence increase
PDZ1-2 of PSD-95; saturation binding, probe 0.5 nM, TBS pH 7.4, read-out: Kd towards PDZ1-2 of PSD-95
  Kd: 7.8 ± 0.11 nM

## CC(C)[C@H](NC(=O)[C@H](CC(=O)O)NC(=O)[C@@H](NC(=O)[C@H](CCC(=O)O)NC(=O)[C@H](CCCCNC(=O)[C@H](CCCNC(=N)N)NC(=O)[C@H](CCCNC(=N)N)NC(=O)[C@H](CCCNC(=N)N)NC(=O)[C@H](CCC(N)=O)NC(=O)[C@H](CCCNC(=N)N)NC(=O)[C@H](CCCNC(=N)N)NC(=O)[C@H](CCCCN)NC(=O)[C@H](CCCCN)NC(=O)[C@H](CCCNC(=N)N)NC(=O)CNC(=O)[C@@H](N)Cc1ccc(O)cc1)NC(=O)CCOCCOCCOCCOCCOCCC(=O)N[C@@H](CCCCNC(=O)[C@H](CCCNC(=N)N)NC(=O)[C@H](CCCNC(=N)N)NC(=O)[C@H](CCCNC(=N)N)NC(=O)[C@H](CCC(N)=O)NC(=O)[C@H](CCCNC(=N)N)NC(=O)[C@H](CCCNC(=N)N)NC(=O)[C@H](CCCCN)NC(=O)[C@H](CCCCN)NC(=O)[C@H](CCCNC(=N)N)NC(=O)CNC(=O)[C@@H](N)Cc1ccc(O)cc1)C(=O)N[C@@H](CCC(=O)O)C(=O)N[C@H](C(=O)N[C@@H](CC(=O)O)C(=O)N[C@H](C(=O)O)C(C)C)[C@@H](C)O)[C@@H](C)O)C(=O)O [AB144_H]
PDZ1-2 of PSD-95; Ki ± SEM, affinity towards PDZ1-2 of PSD-95, heterologous competition, TBS pH 7.4
  Ki: 24 ± 2 nM
PDZ1-2 of PSD-95; PDZ1-2 of PSD-95, from Ki
  fold lower affinity than AB144: ~5 fold

## CC[C@H](C)[C@H](NC(=O)CCOCCOCCOCCOCCOCCC(=O)N[C@H](C(=O)N[C@@H](CCC(=O)O)C(=O)N[C@@H](CO)C(=O)N[C@@H](CC(=O)O)C(=O)N[C@H](C(=O)O)C(C)C)[C@@H](C)CC)C(=O)N[C@@H](CCC(=O)O)C(=O)N[C@@H](CO)C(=O)N[C@@H](CC(=O)O)C(=O)N[C@H](C(=O)O)C(C)C [AB123, PEG4(IESDV)2]
[1]
  ability to enter spinal cord tissue (concluded from fluorescent surrogates): able to reach their target, PSD-95, in the spinal cord

## CC[C@H](C)[C@H](NC(=O)CCOCCOCCOCCOCCOCCC(=O)N[C@H](C(=O)N[C@@H](CCC(=O)O)C(=O)N[C@H](C(=O)N[C@@H](C)C(=O)N[C@H](C(=O)O)C(C)C)[C@@H](C)O)[C@@H](C)CC)C(=O)N[C@@H](CCC(=O)O)C(=O)N[C@H](C(=O)N[C@@H](C)C(=O)N[C@H](C(=O)O)C(C)C)[C@@H](C)O [AB125, PEG4(IETAV)2]
PDZ1-2 of PSD-95; heterologous competition, TBS pH 7.4, read-out: Ki ± SEM, affinity towards PDZ1-2 of PSD-95
  Ki: ~9.5 nM
[2]; 1, 3 and 10 mg/kg given 24 hours after CFA-injection, at 72 hours
  CFA-induced hyperalgesia: significantly reversed
[2]; 3, 10 and 30 mg/kg i.p. simultaneously with CFA, 24 hours afterwards
  CFA-induced pain response (paw withdrawal threshold): reduces CFA-induced pain response; also recorded: differed significantly from saline-treated mice
[2]; 3 and 10 mg/kg given 24 hours after CFA-injection, after 1 hour
  CFA-induced hyperalgesia: significant reversal of the CFA-induced hyperalgesia
[2]; 3 and 10 mg/kg given 24 hours after CFA-injection, after 24 hours
  CFA-induced hyperalgesia: significant reversal was still observed
[2]; 3 and 10 mg/kg, given simultaneously with CFA, after 1 hour
  CFA-induced hyperalgesia: significantly reversed the CFA-induced hyperalgesia
[2]; 3 and 10 mg/kg, given simultaneously with CFA, after 24 hours
  CFA-induced hyperalgesia: significant reversal was still observed
[2]; administered 24 hours after CFA treatment
  duration of reversal of CFA-induced hyperalgesia: at least 3 days
[2]; administered concurrently with CFA, 1 hour and 24 hours after treatment
  CFA-induced mechanical hyperalgesia: prevented the development of CFA-induced mechanical hyperalgesia

Reference: patent publication US9139615B2, “High-affinity, dimeric inhibitors of PSD-95 as efficient neuroprotectants against ischemic brain damage and for treatment of pain” (University of Copenhagen, priority 2011, dated 2015)
